TGI and GI50 data for 13 compounds are collected here from PubChem BioAssay (NCI).

Test systems include A549 NSCLC; EKVX NSCLC; IGROV1 ovarian; LOX IMVI melanoma; MCF7 breast; NCI-H226 lung; NCI-H23 lung; PC-3 prostate; RXF 393 renal; SK-MEL-2 melanoma; SK-MEL-5 melanoma.
Experiment in all cases: NCI tumour cell line growth inhibition, 48 h

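Test compounds were applied to cells in 96-well plates for 48 hours at 5 doses. GI50 = concentration required for 50% inhibition of growth. The concentration for full growth arrest is given as TGI.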

Consider `N#Cc1c(-c2ccc(Cl)cc2)c2c([nH]c1=O)-c1cc([N+](=O)[O-])ccc1CCC2`, for which the TGI in the assay on A549 NSCLC turned out to be 82.9 µM; in the assay with EKVX NSCLC, 51.2 µM; in the assay on IGROV1 ovarian, 60.3 µM; in the assay on LOX IMVI melanoma it was 37.9 µM; in the assay with MCF7 breast, 83 µM; in the assay on NCI-H226 lung, 44.2 µM. The TGI was 36.2 µM with NCI-H23 lung; greater than 100 µM in the assay on PC-3 prostate; 37.6 µM in the assay with RXF 393 renal; 43.4 µM in the assay on SK-MEL-2 melanoma; 40.7 µM with SK-MEL-5 melanoma.

Take `COP(=O)(OC)[C@H](O)[C@H]1C[C@@H]1c1ccccc1`: the TGI in the assay on A549 NSCLC, in the assay with EKVX NSCLC, in the assay with IGROV1 ovarian, with LOX IMVI melanoma, with MCF7 breast and in the assay on NCI-H226 lung was greater than 100 µM each time. Also, the TGI in the assay with NCI-H23 lung, in the assay on PC-3 prostate, with RXF 393 renal, in the assay with SK-MEL-2 melanoma and with SK-MEL-5 melanoma was greater than 100 µM in each case.

On to `Cc1ccc(C(=O)Nc2ncn(C3CC(O)C(CO)O3)c(=O)n2)cc1` (stereo unspecified), for which the TGI in the assay with A549 NSCLC, in the assay with EKVX NSCLC, in the assay with IGROV1 ovarian, in the assay with LOX IMVI melanoma, in the assay on MCF7 breast and with NCI-H226 lung was greater than 100 µM in each case. Further, the TGI with NCI-H23 lung, in the assay on RXF 393 renal, with SK-MEL-2 melanoma and with SK-MEL-5 melanoma was greater than 100 µM throughout.

Regarding `C/C(=C\C(=N\NC(=N)N)c1ccccc1)c1ccccc1`, the TGI stood at 16.9 µM in the assay with A549 NSCLC; 2.11 µM with IGROV1 ovarian; 2.56 µM in the assay on LOX IMVI melanoma; 1.58 µM in the assay on MCF7 breast; 13 µM with NCI-H226 lung; 4.01 µM with NCI-H23 lung. Also, the figures for the TGI with PC-3 prostate, with RXF 393 renal and in the assay on SK-MEL-5 melanoma were 3.21 µM, 8.42 µM and 0.76 µM, respectively.

On to `CCN(CCO)CCNc1ccc(C)c2sc3ccccc3c(=O)c12`, for which the TGI was 15.2 µM in the assay on A549 NSCLC; 26.8 µM with EKVX NSCLC; 12.9 µM in the assay with IGROV1 ovarian; 5.18 µM with LOX IMVI melanoma; 3.24 µM with MCF7 breast; 14 µM in the assay with NCI-H226 lung. Moreover, the TGI in the assay on NCI-H23 lung came out at 21.3 µM; in the assay on PC-3 prostate, 12.7 µM; in the assay on RXF 393 renal, 5.64 µM; in the assay on SK-MEL-2 melanoma, 9.33 µM; in the assay with SK-MEL-5 melanoma it was 7.66 µM.

For the compound `O=c1[nH]c(=O)n(CCOCP(=O)(O)O)nc1Br`, the TGI in the assay with A549 NSCLC, in the assay with EKVX NSCLC, in the assay on IGROV1 ovarian, in the assay on LOX IMVI melanoma, in the assay on MCF7 breast and in the assay with NCI-H226 lung was greater than 100 µM each time. Further, the TGI in the assay on NCI-H23 lung, with PC-3 prostate, with RXF 393 renal, in the assay on SK-MEL-2 melanoma and with SK-MEL-5 melanoma was greater than 100 µM throughout.

Consider `COc1ccc2c(c1)CCCc1c-2nc2ccccc2c1N`, for which the TGI with A549 NSCLC came out at 25.7 µM; in the assay on EKVX NSCLC, 22.2 µM; in the assay with IGROV1 ovarian, 28.7 µM; with LOX IMVI melanoma, 20.9 µM; with MCF7 breast, 24.9 µM; in the assay with NCI-H226 lung, 28.4 µM. Also, the TGI with NCI-H23 lung was 31.6 µM; with PC-3 prostate it was 23.4 µM; in the assay with RXF 393 renal, 18.7 µM; in the assay with SK-MEL-2 melanoma, 29.1 µM; in the assay on SK-MEL-5 melanoma it was 15.1 µM.

`COc1ccc(N=Cc2ccc(N(CCC#N)S(=O)(=O)c3ccccc3)cc2C)cc1`: the TGI in the assay with A549 NSCLC, in the assay on EKVX NSCLC, in the assay on IGROV1 ovarian, with NCI-H226 lung, in the assay with NCI-H23 lung and in the assay with RXF 393 renal was greater than 100 µM each time. Moreover, the TGI in the assay with SK-MEL-2 melanoma was 67.8 µM; in the assay on SK-MEL-5 melanoma, greater than 100 µM.

`CN1NC(c2ccccc2)=C(C#N)C(=O)CC1c1ccc(F)cc1` (stereo unspecified): the TGI with A549 NSCLC, in the assay on LOX IMVI melanoma, in the assay with NCI-H226 lung, in the assay on NCI-H23 lung, with RXF 393 renal and in the assay with SK-MEL-2 melanoma was greater than 100 µM throughout. This compound returned a TGI in the assay with SK-MEL-5 melanoma greater than 100 µM.

With `CCCCCCCCCCCCSC(=S)c1c(C)[nH]n(CCCCCCCCCCCC)c1=O`, the TGI in the assay with A549 NSCLC is greater than 100 µM; in the assay with EKVX NSCLC, 81.1 µM; in the assay on IGROV1 ovarian, greater than 100 µM; with LOX IMVI melanoma it was greater than 100 µM; in the assay on NCI-H226 lung it was greater than 100 µM; in the assay with NCI-H23 lung, greater than 100 µM. Also, the TGI with SK-MEL-2 melanoma and with SK-MEL-5 melanoma was greater than 100 µM in each case.

As for `Cc1cc(=O)n2c3c(c4c(cc13)c(CN(C)C)cc(=O)n4C)OC2`, the TGI was greater than 55.1 µM in the assay on A549 NSCLC; greater than 58.2 µM in the assay with EKVX NSCLC; 41.9 µM with IGROV1 ovarian; greater than 100 µM in the assay with LOX IMVI melanoma; greater than 60.5 µM in the assay on MCF7 breast; greater than 67.1 µM in the assay with NCI-H226 lung. Also, the TGI in the assay on NCI-H23 lung was 50.2 µM; with PC-3 prostate it was greater than 59.2 µM; with RXF 393 renal it was 28.7 µM; in the assay on SK-MEL-2 melanoma it was 41.6 µM; with SK-MEL-5 melanoma, 45.1 µM.

Regarding `O=C(NC(Cc1ccc(Cl)cc1)C(=O)O)c1ccc(I)cc1` (stereo unspecified), the TGI in the assay with A549 NSCLC, in the assay with IGROV1 ovarian, in the assay on LOX IMVI melanoma, in the assay with MCF7 breast, with NCI-H226 lung and with NCI-H23 lung was greater than 100 µM in each case. The TGI in the assay with RXF 393 renal, in the assay on SK-MEL-2 melanoma and in the assay on SK-MEL-5 melanoma was greater than 100 µM throughout.

On to `C=C1CC2C3C=C(C)C4=CC(=O)CC[C@]4(C)C3CC[C@]2(C)[C@@]1(OC(C)=O)C(C)=O` (stereo partly specified), for which the GI50 with A549 NSCLC is 2.63 µM; in the assay on EKVX NSCLC, 2.1 µM; in the assay on IGROV1 ovarian it was greater than 100 µM; with MCF7 breast, 4.16 µM; in the assay with PC-3 prostate it was 2.55 µM; in the assay on RXF 393 renal, 4.31 µM. In addition, the GI50 with SK-MEL-2 melanoma is greater than 100 µM. Besides, the TGI in the assay with A549 NSCLC, in the assay on EKVX NSCLC, in the assay on IGROV1 ovarian, with MCF7 breast, with PC-3 prostate and in the assay on RXF 393 renal was greater than 100 µM in each case. In addition, the TGI in the assay with SK-MEL-2 melanoma is greater than 100 µM.
